Test results published in patent US20170319552A1, “ATROPISOMERS OF TRIAZOLE DERIVATIVE” (ARDEA BIOSCIENCES, INC., priority 2016, published 2017).
Like-named read-outs stand apart in the source and are kept apart here.

Assays:
[1] = In vitro metabolism, incubations with human liver microsomes; assay type: in vitro ADME
Protocol: (§1) Human liver microsomes (0.5 mg/mL; mixed gender, ultrapooled, BD Biosciences, catalog number 452117) were incubated at 37±1° C. in 0.2 mL (final volume) of incubation mixtures containing potassium phosphate buffer (100 mM, pH7.4), MgCl2 (3 mM), NADPH (1 mM), and the atropisomers (1, 10, or 50 μM) (all experiments performed in duplicate). Stock solutions of atropisomers were prepared with DMSO at 100 mM. The final concentration of DMSO in the incubation was at or less than 0.05%. Reactions were initiated by addition of NADPH solution and terminated at predetermined time point (30 min) by addition of stop reagent (300 μL chilled acetonitrile containing 0.1 μM of 7-hydroxycoumarin as an internal standard). After incubation, microsomal proteins were precipitated by centrifugation at 3300×g for 15 min at 4° C. Supernatant fractions were analyzed by LC-MS/MS.
(§2) HPLC mass spectrometer system: An API4000 triple quadrupole mass spectrometer equipped with electrospray ionization ion source was used for quantitation and operated in positive mode. The HPLC system consisted of a CTC Analytics PAL autosampler, an Agilent 1100 series degasser (G1379A), and an Agilent 1100 series binary pump (G1312A). […]
(§3) The formation of M3, M3c, M4 and M6 from each atropisomer in liver microsomal and recombinant CYP incubations was determined, based on the peak area ratio of analyte over internal standard (IS)

[2] = In vivo human metabolism, plasma and urine pharmacokinetics after single oral dose of racemic Compound (I); details: human
Protocol: Plasma samples were collected prior to dosing (within 30 minutes before dosing) and at the following timepoints: 0.5, 1, 1.5, 2, 3, 4, 5, 6, 8, 10, 12, and 24 hours postdose. Urine was also collected. […] The supernatant was diluted with injection solvent and analyzed by HPLC with tandem mass spectrometry (LC/MS/MS). […] The calibration curves were linear over the concentration range between 5.00 ng/mL and 2000 ng/mL with a lower limit of quantification (LLOQ) of 5.00 ng/mL.
Using the above data, the following plasma pharmacokinetic parameters were calculated using validated Phoenix WinNonlin, version 6.3 (Pharsight Corporation, Mountain View, Calif.) and are shown (geometric mean 95% CI) in tables 11, 12, and 13 below.
• Cmax: Maximum observed concentration (μg/mL) • Tmax: Time of occurrence of maximum observed concentration (hr) • AUC0-24: Area under plasma concentration-vs-time curve, from time 0 to 24 hours postdose (μg·hr/mL) • C24: Concentration 24 hours post dose (μg/mL) • t1/2: Apparent terminal half-life (hr)

[3] = Atropisomer interconversion, thermal challenge in aqueous solvent (dilute sodium bicarbonate); assay type: physicochemical
Protocol: (§4) The individual atropisomers of Compound (I), atropisomer 1 and atropisomer 2 (elution order from normal-phase chiral chromatography) were exposed to various conditions, including thermal challenge in both organic and aqueous media and exposure to simulated biological conditions, to ascertain whether they readily interconvert.
Atropisomer 1 was dissolved in dilute aqueous sodium bicarbonate solution. Atropisomer 2 was dissolved in dilute aqueous sodium bicarbonate solution. […] Samples of the resulting solutions were exposed to room temperature (rt), 60° C., and 100° C. for four days. After four days, the samples were concentrated to dryness (SpeedVac evaporator—DNA120, property H001630), redissolved in acetonitrile and analyzed by high performance liquid chromatography (AGMS02 Agilent 1100) on a normal phase amylose-based chiral column (ChiralPak IA-3, 3 μm, 100×4.6 mm, column 244), using isocratic elution and UV detection at 226 nm (see example 1). […] Sample chromatograms at t0, 60° C., and 100° C. after four days, are depicted in FIG. 3A, FIG. 3B and FIG. 3C respectively.

[4] = Atropisomer interconversion, thermal challenge in organic solvent (acetonitrile); assay type: physicochemical
Protocol: as §4
Samples of each separate atropisomers were held at 60° C. for four days and then analyzed by high performance liquid chromatography (AGMS02 Agilent 1100) on a normal phase amylose-based chiral column (ChiralPak IA-3, 3 μm, 100×4.6 mm, column 244), using isocratic elution and UV detection at 226 nm (see example 1).

[5] = In vitro metabolism, human liver microsomes in the presence of mEH inhibitor valpromide; assay type: in vitro ADME
Protocol: as §1, with “atropisomer” for “and the atropisomers”, “50 μM) and valpromide (0, 50, or 100” for “50”, “duplicate).” for “duplicate). Stock solutions of atropisomers were prepared with DMSO at 100 mM. The final concentration of DMSO in the incubation was at or less than 0.05%.”
as §2, §3

recombinant human CYP2C9 = recombinant human CYP2C9 (Homo sapiens, UniProt P11712); experiment: Metabolite formation with recombinant human CYP2C9; assay type: in vitro ADME
Protocol: as §3

[6] = Urine PK Parameters (Geometric mean, CI 95%), single oral 400 mg racemic Compound (I)
[7] = plasma, geometric mean, single oral 400 mg racemic Compound (I)

Chain of recombinant human CYP2C9 (P11712 whole entry): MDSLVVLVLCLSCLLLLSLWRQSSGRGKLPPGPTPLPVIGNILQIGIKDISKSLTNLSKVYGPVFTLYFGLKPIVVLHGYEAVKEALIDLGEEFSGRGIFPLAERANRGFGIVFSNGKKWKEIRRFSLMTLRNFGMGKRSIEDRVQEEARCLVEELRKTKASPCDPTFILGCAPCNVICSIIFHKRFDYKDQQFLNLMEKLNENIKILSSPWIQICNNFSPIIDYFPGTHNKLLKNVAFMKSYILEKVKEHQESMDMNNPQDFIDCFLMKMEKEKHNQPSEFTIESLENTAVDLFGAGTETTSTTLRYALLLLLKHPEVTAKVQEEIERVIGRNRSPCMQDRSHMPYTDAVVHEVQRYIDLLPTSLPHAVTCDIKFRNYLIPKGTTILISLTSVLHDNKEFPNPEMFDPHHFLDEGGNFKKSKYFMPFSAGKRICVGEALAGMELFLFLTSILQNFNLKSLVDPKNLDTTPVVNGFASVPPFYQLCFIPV

With `O=C(O)CSc1nnc(Br)n1-c1ccc(C2CC2)c2ccccc12` (single isomer, unassigned) [Atropisomer 1, (−)-2-(5-bromo-4-(4-cyclopropylnaphthalen-1-yl)-4H-1,2,4-triazol-3-ylthio)acetic acid] the M3c formation [1] was “predominantly formed”, the Ae0-24 [2, 6] was 66.3 mg and the CLR0-24 [2, 6] was 42.6 mL/min. For the same compound, the concentration at 0.5 h ([2]; male, plasma, po, 400 mg, 0.5 hr postdose, single oral 400 mg Compound (I) racemic mixture, adult male subjects) was 65 ng/mL, the concentration at 1 h ([2]; male, plasma, po, 400 mg, 1 hr postdose, single oral 400 mg Compound (I) racemic mixture, adult male subjects) was 1720 ng/mL and the concentration at 1.5 h ([2]; male, plasma, po, 400 mg, 1.5 hr postdose, single oral 400 mg Compound (I) racemic mixture, adult male subjects) was 3600 ng/mL. For the same compound, the concentration at 2 h ([2]; male, plasma, po, 400 mg, 2 hr postdose, single oral 400 mg Compound (I) racemic mixture, adult male subjects) was 4460 ng/mL, the concentration at 3 hr ([2]; male, plasma, po, 400 mg, 3 hr postdose, single oral 400 mg Compound (I) racemic mixture, adult male subjects) was 5740 ng/mL and the concentration at 4 hr ([2]; male, plasma, po, 400 mg, 4 hr postdose, single oral 400 mg Compound (I) racemic mixture, adult male subjects) was 4560 ng/mL. The concentration at 5 hr ([2]; male, plasma, po, 400 mg, 5 hr postdose, single oral 400 mg Compound (I) racemic mixture, adult male subjects) was 3430 ng/mL, the concentration at 6 hr ([2]; male, plasma, po, 400 mg, 6 hr postdose, single oral 400 mg Compound (I) racemic mixture, adult male subjects) was 1960 ng/mL and the concentration at 8 hr ([2]; male, plasma, po, 400 mg, 8 hr postdose, single oral 400 mg Compound (I) racemic mixture, adult male subjects) was 811 ng/mL. It also gave a concentration at 10 hr ([2]; male, plasma, po, 400 mg, 10 hr postdose, single oral 400 mg Compound (I) racemic mixture, adult male subjects) of 415 ng/mL, a concentration at 12 hr ([2]; male, plasma, po, 400 mg, 12 hr postdose, single oral 400 mg Compound (I) racemic mixture, adult male subjects) of 248 ng/mL and a concentration at 24 h ([2]; male, plasma, po, 400 mg, 24 hr postdose, single oral 400 mg Compound (I) racemic mixture, adult male subjects) of 33 ng/mL. It also gave an AUC(0-t) ([2]; male, plasma, po, 400 mg, Plasma Concentration (Mean), single oral 400 mg racemic Compound (I), read-out: AUC0-24) of 27100 ng·h/mL, a Cmax ([2]; male, plasma, po, 400 mg, Plasma Concentration (Mean), single oral 400 mg racemic Compound (I), read-out: Cmax) of 6600 ng/mL and a Cmax ([2]; male, plasma, po, 400 mg, plasma, geometric mean, single oral 400 mg racemic Compound (I), read-out: Cmax: Maximum observed concentration) of 6230 ng/mL. For the same compound, the half-life ([2]; male, plasma, po, 400 mg, plasma, geometric mean, single oral 400 mg racemic Compound (I), read-out: t1/2: Apparent terminal half-life (converted)) was 3.59 h, the concentration at 0 h ([2]; male, plasma, po, 400 mg, time 0 hr (prior to dosing), single oral 400 mg Compound (I) racemic mixture, adult male subjects) was 0 ng/mL and the Tmax ([2]; male, plasma, po, 400 mg, read-out: Tmax: Time of occurrence of maximum observed concentration) was 3 h. The “AUC0-24: Area under plasma concentration-vs-time curve, from time 0 to 24 hours postdose” value [2, 7] was 25.9 µg·h/mL, the “C24 h: Concentration 24 hours post dose” value [2, 7] was 21.6 ng/mL and the “% Atropisomer 1” value ([3]; 60° C. 4 days) was 99.8%. For the same compound, the “% Atropisomer 2” value ([3]; 60° C. 4 days) was 0.2%, the “% Atropisomer 1” value ([3]; 100° C. 4 days) was 99.6% and the “% Atropisomer 2” value ([3]; 100° C. 4 days) was 0.4%. The “% Atropisomer 1” value ([3]; rt, 4 days) was 99.8%, the “% Atropisomer 2” value ([3]; rt, 4 days) was 0.2% and the “% Atropisomer 1” value ([3]; t0 (control)) was 99.8%. The “% Atropisomer 2” value ([3]; t0 (control)) was 0.2%, the “% Atropisomer 1” value ([4]; acetonitrile 0.25 mg/mL, t0) was 99.7% and the “% Atropisomer 2” value ([4]; acetonitrile 0.25 mg/mL, t0) was 0.3%. For the same compound, the “% Atropisomer 1” value ([4]; acetonitrile, 60° C. 4 days) was 99.7%, the “% Atropisomer 2” value ([4]; acetonitrile, 60° C. 4 days) was 0.3% and the “M3c level in the presence of valpromide (mEH inhibitor)” value [5] was “greatly increased”. For the same compound, the “Formation of M3c, CYP2C9 mediated, atropisomer 1 versus atropisomer 2” value (recombinant human CYP2C9) was “significantly greater”.
